{"source": "patent US12593841B2", "about": "“Antimicrobial mixture containing 4-(3-ethoxy-4-hydroxyphenyl)butan-2-one and an arginate compound, and cosmetic composition containing same” (L'OREAL, priority 2017, dated 2026)", "type_in_all_cases": "cell-based", "key": {"[1]": {"tested_on": "Staphylococcus aureus ATCC 6538", "test": "MIC / synergy (FIC index) microplate growth test on Staphylococcus aureus", "from_the_text": "(§1) As regards the combinations tested, MICa with b and MICb with a are the respective concentrations of A and of B in the combinations which make it possible to obtain a microbial growth percentage of less than or equal to 25%.\n(§2) When the FIC index value is less than or equal to 1, it is considered that the combination of test compounds has a synergistic effect.\nThe microbial strain Staphylococcus aureus ATCC 6538 and a double-concentration nutrient broth liquid culture medium were used.\n(§3) A 96-well microplate at an incubation temperature of 32.5° C. is used.\n(§4) The incubation time of the microplate for the three abovementioned strains is from 18 to 24 hours aerobically.\n(§5) A 10% (weight/volume) stock solution was prepared by mixing 1 g of compound in 9 ml of aqueous 1‰ agar solution. Successive dilutions were made with the 1‰ agar solution. • Tests of compounds A and B alone\n(§6) 50 μL of each of the daughter solutions obtained containing compound A or B are added to the microplate wells. 100 μl of Sabouraud liquid nutrient broth inoculated at double concentration with the strain Candida albicans and 50 μl of aqueous 1‰0 agar solution are also added thereto. • Tests of compounds A and B as a mixture\n(§7) 50 μL of each of the daughter solutions obtained containing compound A and 50 μL of each of the daughter solutions obtained containing compound B are added to the microplate wells. 100 μl of Sabouraud liquid nutrient broth inoculated at double concentration with the strain Candida albicans are also added thereto.\n(§8) A positive microbial growth control was also prepared. The positive microbial growth control corresponds to a mixture of 100 μl of aqueous 1‰ agar solution with 100 μl of Sabouraud liquid nutrient broth inoculated at double concentration with the strain Candida albicans in the absence of compounds A and B.\n(§9) An absorbance control was performed in parallel on compounds A and B alone. This control corresponds to 100 μL of double concentration sterile Sabouraud liquid nutrient broth +100 μl of double concentration compound A or B.\n(§10) In the three cases (absorbance control, growth control and test), the final volume present in each of the microplate wells is 200 μL.\n(§11) The test as described above (tests, absorbance control and growth control) was performed again to test the combination A+B on the strains Staphylococcus aureus and Pseudomonas aeruginosa."}, "[2]": {"tested_on": "Pseudomonas aeruginosa ATCC 9027", "test": "MIC / synergy (FIC index) microplate growth test on Pseudomonas aeruginosa", "from_the_text": "as §1, §2\nThe microbial strain Pseudomonas aeruginosa ATCC 9027 and a double-concentration nutrient broth liquid culture medium were used.\nas §3, §4, §5, §6, §7, §8, §9, §10, §11"}, "[3]": {"tested_on": "Candida albicans ATCC 10231", "test": "MIC / synergy (FIC index) microplate growth test on Candida albicans", "from_the_text": "as §1, §2\nThe microbial strain Candida albicans ATCC 10231 and a double-concentration Sabouraud broth liquid culture medium were used.\nas §3, §4, §5, §6, §7, §8, §9, §10\nIn the two cases (test and control), the inoculum represents the concentration of the strain Candida albicans present in the final volume of the wells (200 μL) and is between 2 and 6×10^5 cfu/ml of Candida albicans."}, "[4]": {"conditions": "weight % of active material, growth <= 25%"}}, "data": [{"smiles": "CCOc1cc(CCC(C)=O)ccc1O", "note": "[A, 4-(3-ethoxy-4-hydroxyphenyl)butan-2-one]", "values": [{"measurement": "microbial growth percentage", "setting": "[1]; 0.125 weight % A alone (0 B)", "result": 58, "unit": "%"}, {"measurement": "microbial growth percentage", "setting": "[1]; 0.25 weight % A alone (0 B)", "result": 60, "unit": "%"}, {"measurement": "microbial growth percentage", "setting": "[1]; 0.5 weight % A alone (0 B)", "result": 0, "unit": "%"}, {"measurement": "% MIC of A alone", "setting": "[1]; [4]", "result": 0.5, "unit": "%"}, {"measurement": "microbial growth percentage", "setting": "[2]; 0.125 weight % A alone (0 B)", "result": 99, "unit": "%"}, {"measurement": "microbial growth percentage", "setting": "[2]; 0.25 weight % A alone (0 B)", "result": 46, "unit": "%"}, {"measurement": "microbial growth percentage", "setting": "[2]; 0.5 weight % A alone (0 B)", "result": 37, "unit": "%"}, {"measurement": "microbial growth percentage", "setting": "[2]; 1 weight % A alone (0 B)", "result": 41, "unit": "%"}, {"measurement": "microbial growth percentage", "setting": "[2]; 2 weight % A alone (0 B)", "result": 19, "unit": "%"}, {"measurement": "% MIC of A alone", "setting": "[2]; [4]", "result": 2, "unit": "%"}, {"measurement": "microbial growth percentage", "setting": "[3]; 0.025 weight % A alone (0 B)", "result": 80, "unit": "%"}, {"measurement": "microbial growth percentage", "setting": "[3]; 0.05 weight % A alone (0 B)", "result": 62, "unit": "%"}, {"measurement": "microbial growth percentage", "setting": "[3]; 0.1 weight % A alone (0 B)", "result": 24, "unit": "%"}, {"measurement": "microbial growth percentage", "setting": "[3]; 0.2 weight % A alone (0 B)", "result": 3, "unit": "%"}, {"measurement": "% MIC of A alone", "setting": "[3]; [4]", "result": 0.2, "unit": "%"}]}, {"smiles": "CCCCCCCCCCCC(=O)N[C@@H](CCCNC(=N)N)C(=O)OCC.Cl", "note": "[B, ethyl N-lauroyl arginate hydrochloride, reference compound]", "values": [{"measurement": "microbial growth percentage", "setting": "[1]; 0.00025 weight % B alone (0 A)", "result": 71, "unit": "%"}, {"measurement": "microbial growth percentage", "setting": "[1]; 0.0005 weight % B alone (0 A)", "result": 0, "unit": "%"}, {"measurement": "% MIC of B alone", "setting": "[1]; [4]", "result": 0.0005, "unit": "%"}, {"measurement": "microbial growth percentage", "setting": "[2]; 0.0025 weight % B alone (0 A)", "result": 37, "unit": "%"}, {"measurement": "microbial growth percentage", "setting": "[2]; 0.005 weight % B alone (0 A)", "result": 10, "unit": "%"}, {"measurement": "% MIC of B alone", "setting": "[2]; [4]", "result": 0.005, "unit": "%"}, {"measurement": "microbial growth percentage", "setting": "[3]; 0.0025 weight % B alone (0 A)", "result": 28, "unit": "%"}, {"measurement": "microbial growth percentage", "setting": "[3]; 0.005 weight % B alone (0 A)", "result": 9, "unit": "%"}, {"measurement": "% MIC of B alone", "setting": "[3]; [4]", "result": 0.005, "unit": "%"}]}]}
